In patent publication US10664967B2, “Methods, systems, and apparatuses for quantitative analysis of heterogeneous biomarker distribution” (Ventana Medical Systems, Inc., priority 2014, dated 2020):

System: SKBR3 cells
Assay: Phosphomarker expression in untreated vs drug treated FFPE SKBR3 cells (multiplexed QD spectral imaging, IF, immunoblot)
Assay type: cell-based
Conditions: 250 nM, 24 hrs, MTIP, consistent with IF and immunoblot
Experimental: Breast cancer cell line model SKBR3 and the prostate adenocarcinoma cell line model LNCaP were cultured in McCoy's 5A medium supplemented with 10% FBS. SKBR3 cells were treated with the ATP-competitive pan-AKT kinase inhibitor drug GSK690693 at low nanomolar concentration (250 nM) for 24 hrs for antibody validation studies. After drug treatment, cells were washed using cold 1×PBS, fixed in cold 10% Neutral Buffered Formalin and embedded in paraffin for sectioning and slide preparation.
Protein samples from SKBR3 cells were prepared by denaturing cell lysate in an equal volume of Laemmli sample buffer (Biorad, Hercules, Calif.) with 0.5 M dithiothreitol at 100° C. for 5 min. Proteins were separated by SDS-PAGE, transferred to polyvinylidene difluoride membranes, blotted with primary antibodies and detected with horseradish peroxidase-conjugated secondary antibodies. Protein bands were detected using ECL (Thermo Scientific).
Immunostaining for fluorescence spectral imaging was performed on FFPE specimens of SKBR3 cells and tumor tissue on a Benchmark XT autostainer (Ventana Medical Systems, Tucson, Ariz.), to evaluate phosphoprotein staining with the hapten-anti-hapten chemistry in FFPE cell and tumor specimens. All FFPE specimens (cell models, xenograft or tumor tissues) were subjected to automated deparaffinization in EZPREP buffer (VMSI Cat #950-102), and cell conditioning with CC1 buffer (VMSI Cat #950-124) for 90 min prior to antibody incubations. FFPE specimens were incubated with a single or a cocktail of hapten-conjugated primary antibodies (pS6:BF, pAKT 5473:DIG, peIF4G:TS, pPRAS40:NP, pERK 1/2:NCA, pAKT T308:DNP at 5, 15, 20, 20, 30, 12.5 μg/mL respectively) at 37° C. for 32 minutes. Following the primary antibody incubation step, samples were incubated by appropriate combination of secondary anti-hapten antibody QD conjugates (anti-BF:QD525, anti-DIG:QD565, anti-TS:QD585, anti-NP:[…], anti-NCA:QD625, anti-DNP:QD655 at 40, 50, 50, 70, 40, 30 nM concentrations respectively) at 37° C. for 32 minutes. Following automated staining with antibodies, samples were dehydrated in ethanol series, followed by xylene, and mounted using Cytoseal 60 (Thermo Scientific).
The specificity of the antibodies selected was tested using a series of IHC experiments using FFPE cell and xenograft model systems (FIGS. 14 15 and 16). The anti-phosphomarker hapten conjugated primary and anti-hapten monoclonal secondary functionality was tested using the SKBR3 cell line, a well-established breast cancer model of PI3K pathway activation (Englemen PNAS ref). SKBR3 cells were either untreated or treated with the AKT small molecule inhibitor GSK690693. The two cell populations were prepared as FFPE blocks and stained using the anti-phosphomarker primaries, followed by anti-hapten secondary antibodies conjugated to HRP to permit contrast through DAB. This permitted verification of the hapten-anti-hapten labeling scheme (FIG. 14; the DAB stain pattern was consistent with primary-anti-species secondary staining performed in parallel).
A multiplexed experiment was then conducted using the combined markers followed by hyperspectral imaging and processing to separate the signal contributions for each marker (FIG. 14b). For additional comparison, SKBR3 cell lysates were subjected to immunoblotting with all six phosphoantibodies (FIG. 14c). […] The similarity of phosphomarker expression changes upon drug treatment detected using MTIP to that observed in the IF and immunoblot staining validate the specificity and functionality of the conjugated antibodies used in the multiplexed assay context.

With `CCn1c(-c2nonc2N)nc2c(C#CC(C)(C)O)ncc(OC[C@H]3CCCNC3)c21` [GSK690693] the “pAKT308 expression change following drug treatment” value was “relative increase in expression”, the “pAKT473 expression change following drug treatment” value was “relative increase in expression” and the “pERK expression change following drug treatment” value was “reduction in the expression”. The “pPRAS40 expression change following drug treatment” value was “reduction in the expression”, the “pS6 expression change following drug treatment” value was “reduction in the expression” and the “peIF4G expression change following drug treatment” value was “did not show any significant change in the expression”.
